The term IC50 denotes the concentration that gives 50% inhibition. For orientation: solubility means the concentration that dissolves in the medium under given conditions.

One series concerns the target T1, CYP2C9 (Homo sapiens, UniProt P11712).
T1 construct: purchased Cypex; host or cells: bactosomes (bacterial membranes)
Description: Cytochrome p450 inhibition assay (bactosomes, fluorogenic substrate FCA). The format is biochemical. Conditions: recombinant human CYP (Cypex bactosomes). As to the method: (§1) The assay was designed to evaluate inhibition on cytochrome P450 (CYP) 3A4, 2C9, 2C19, 1A2 and 2D6 enzymes from bactosomes source using fluorogenic substrates. Compound (compound of Formula (I) or Comparator Compound) was dissolved in methanol at 1.65 mM. Daughter solutions were prepared in methanol at 660, 264, 106, 42, 17, 6.8, 2.7, 1.1 and 0.43 μM. NADPH cofactor was prepared with Glucose-6-phosphate (7.8 mg), Glucose-6-phosphate dehydrogenase (6 units), NADP (1.7 mg) per 1 mL in NaHCO3 2%. Substrate preparation was as follows: • 7-Methoxy-4-triFluoromethyl Coumarin-3-Acetic acid ethyl ester (FCA): 12.5 mM in acetonitrile • EthoxyResorufin (ER): 0.05 mM in acetonitrile • 4-MethylaminoMethyl-7-Methoxy Coumarin (MMC): 2.5 mM in methanol • 3-Butyryl-7Methoxy Coumarin (BMC): 2.5 mM in DMSO • 7-BenzyloxyQuinoline (7BQ): 2.5 mM in acetonitrile • DiEthoxyFluorescein (DEF): 0.1 mM in acetonitrile Bactosomes (Cypex source) at the concentration of 10 mg of protein per ml were diluted in phosphate buffer 50 mM pH7.4: • 0.33 ml of bactosomes CYP2C9 with 23.8 ml of buffer and 0.11 ml of FCA • 0.33 ml of bactosomes CYP1A2 with 23.6 ml of buffer and 0.275 ml of ER • 0.33 ml of bactosomes CYP2D6 with 23.8 ml of buffer and 0.11 ml of MMC • 0.33 ml of bactosomes CYP2C19 with 23.8 ml of buffer and 0.11 ml of BMC • 0.33 ml of bactosomes CYP3[…] with 23.6 ml of buffer and 0.275 ml of 7BQ • 0.33 ml of bactosomes CYP3[…] with 23.6 ml of buffer and 0.275 ml of DEF Pre-Incubation consisted in mixing 5 μl of compound solution with 220 μl diluted bactosomes and warming it at 37° C. for 10 min. Incubation was started with the addition of 25 μl of NADPH. […]

Series [1] in a line: Intestinal microsomal stability. Conditions: 37° C., even after 60 minutes. It is filed as in vitro ADME. As to the method: (§2) The assay was designed for determining stability of compound in microsomal matrix. Compound (Compound of Formula (I)) was dissolved in DMSO at 1 mg/ml. Daughter solution was prepared in methanol/water (50/50) at 30.3 ng/ml. Microsomes (from Xenotech) were diluted at 0.625 mg proteins per ml in phosphate buffer 50 mM pH 7.4.
Pre-Incubation consisted of warming microsomal solution 395 μl with 100 μl NaHCO3 (2%) at 37° C. for 7 min. Incubation was started with the addition of 5 μl of daughter solution. […]
(§3) After 10 min centrifugation at 4000 rpm, 2 μl of samples were injected into the liquid chromatography system and eluted on a Ascentis C18 column (50×2.1 mm id, 2.7 μm) with 0.1% formic acid in water (A) and 0.1% formic acid in acetonitrile (B), using the following 2 minute elution gradient: 5 to 95% B over 1.2 min, 95% B over 0.6 min and 0.1 min for re-equilibrate column, at 0.5 mL/min at 50° C.
Samples were analysed by Mass Spectrometry with an electrospray source, in positive mode and with following mass transitions: • Compound of Formula (I): 657 to 384 • Monoester of CPHPC: 499 to 226 • CPHPC: 341 to 226
Controls were made to calculate percentage of disappearance of parent but also appearance of suspected metabolite, i.e. monoester and diacidic form.

Series [2] is described as follows: Physical stability (hydrolysis) in phosphate buffer at various pHs. It is filed as physicochemical. Conditions: acidic environment (pH less than 7.0), room temperature. As to the method:
The assay was designed for determining physical stability of compound in buffer at various pHs. Compound of Formula (I) was dissolved in DMSO at 1 mg/ml. Phosphate buffer (PBS) was prepared by mixing K2HPO4 50 mM and KH2PO4 50 mM solutions to obtain 4 buffers at pH 6.0, 7.0, 7.5, 8.0.
Stability studies were conducted at room temperature, and were started by the addition of 8 μl of DMSO solution to 792 μl of PBS 50 mM at pH 6.0, 7.0, 7.5 or 8.0 (1% DMSO). 75 μl of mixture was taken at 0, 1, 2, 4 and 24 h and 225 μl acetonitrile containing internal standard was added.
2 μl of samples were injected into the liquid chromatography system and eluted with a Ascentis C18 column (50×2.1 mm id, 2.7 μm) and with 0.1% formic acid in water (A) and 0.1% formic acid in acetonitrile (B), using the following elution 2 min gradient: 5 to 95% B over 1.2 min, 95% B over 0.6 min and 0.1 min for re-equilibrate column, at 0.5 mL/min at 50° C.
Samples were analysed by Mass Spectrometry with an electrospray source and in positive mode and with following mass transitions: • Compound of Formula (I): 657 to 384 • Monoester of CPHPC: 499 to 226 • CPHPC: 341 to 226

A short description of series [3]: Solubility in aqueous media. Conditions: for solubility at 4 h: thermodynamic from solid, read-out: Solubility at 4 hour timepoint. The format is physicochemical. The protocol: A known quantity of the compound of Formula (I) was weighed into a suitable vessel (e.g. a screw capped clear glass vial) and a known volume of the required media added (e.g. Simulated Gastric Fluid pH 1.6[SGF], Simulated Fed State Intestinal Fluid pH 6.5 [FeSSIF], Simulated Fasted State Intestinal Fluid pH 6.5 [FaSSIF], Water [Purified Water], or Britton-Robinson buffer). The compound was wetted with the media by vortex mixing for 30 seconds to 1 minute. The sample was then visually observed to ensure that undissolved solid remained present. The sample was transferred to a gentle mixer (such as a roller mixer) and allowed to agitate until the desired time point was reached. At appropriate times the sample was reassessed visually. If all the solid had dissolved the solubility was recorded as >x mg/ml where x is the known weight used divided by the volume added. If undissolved solid remained a portion of the sample was taken and centrifuged to remove the solid leaving a clear supernatant. The supernatant was diluted volumetrically with a suitable diluent to provide an analytical sample of suitable concentration for analysis. This diluted sample was then analysed by a suitable method such as HPLC against a standard(s) of known concentration. The solubility of the compound can then be calculated using a knowledge of the concentration of the standard, the relative response (e.g. peak areas) of the standard and the analytical sample described, and the dilution of the analytical sample.

The next series has as its target T2, CYP2C19 (Homo sapiens, UniProt P33261).
T2 construct: purchased Cypex; host or cells: bactosomes (bacterial membranes)
Description: Cytochrome p450 inhibition assay (bactosomes, fluorogenic substrate BMC). The format is biochemical. Conditions: recombinant human CYP (Cypex bactosomes). As to the method:
as §1

The next series concerns the target T3, CYP2D6 (Homo sapiens, UniProt P10635).
T3 construct: purchased Cypex; host or cells: bactosomes (bacterial membranes)
Description: Cytochrome p450 inhibition assay (bactosomes, fluorogenic substrate MMC). Conditions: recombinant human CYP (Cypex bactosomes). It is filed as biochemical. As to the method:
as §1

Another series addresses T4, CYP1A2 (Homo sapiens, UniProt P05177).
T4 construct: purchased Cypex; host or cells: bactosomes (bacterial membranes)
T4 sequence (P05177 1-516): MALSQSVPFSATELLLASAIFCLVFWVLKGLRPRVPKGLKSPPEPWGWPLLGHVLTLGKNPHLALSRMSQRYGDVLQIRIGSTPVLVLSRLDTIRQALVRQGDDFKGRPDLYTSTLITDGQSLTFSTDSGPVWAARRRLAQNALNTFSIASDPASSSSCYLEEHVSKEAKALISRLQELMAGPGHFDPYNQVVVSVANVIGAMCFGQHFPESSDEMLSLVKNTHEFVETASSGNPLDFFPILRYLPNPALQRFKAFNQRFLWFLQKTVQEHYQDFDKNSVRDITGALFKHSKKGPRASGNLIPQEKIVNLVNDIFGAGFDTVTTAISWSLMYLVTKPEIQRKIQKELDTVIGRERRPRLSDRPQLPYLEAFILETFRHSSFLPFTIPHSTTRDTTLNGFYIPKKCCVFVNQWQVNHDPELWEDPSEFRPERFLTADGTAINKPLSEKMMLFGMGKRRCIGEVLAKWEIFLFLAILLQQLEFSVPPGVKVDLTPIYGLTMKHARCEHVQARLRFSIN
Description: Cytochrome p450 inhibition assay (bactosomes, fluorogenic substrate ER). It is filed as biochemical. Conditions: recombinant human CYP (Cypex bactosomes). The protocol: as §1

Series [4] is described as follows: Liver microsomal stability. It is filed as in vitro ADME. The protocol:
as §2
Pre-Incubation consisted of warming microsomal solution 395 μl with 100 μl NaHCO3 (2%) at 37° C. for 7 min. Incubation was started with the addition of 5 μl of daughter solution. 50 μl aliquots of mixture were taken at 0, 3, 6, 12 and 30 min and quenched with 150 μl acetonitrile containing internal standard.
as §3
Samples were analysed by Mass Spectrometry with an electrospray source, in positive mode and with following mass transitions: • Compound of Formula (I): 657 to 384 • Monoester of CPHPC: 499 to 226 • CPHPC: 341 to 226 […]
In vitro liver microsomal activity of was assessed using the protocol detailed above (Intestine and Liver Microsomal Assay protocol).
On the technique in general: Liver microsomes are vesicles of endoplasmic reticulum, rich in cytochrome P450 enzymes.

A further series deals with T5, CYP3A4 (Homo sapiens, UniProt P08684).
T5 construct: purchased Cypex; host or cells: bactosomes (bacterial membranes)
Description: Cytochrome p450 inhibition assay (bactosomes, fluorogenic substrates 7BQ and DEF). The format is biochemical. Conditions: recombinant human CYP (Cypex bactosomes). The protocol:
The assay was designed to evaluate inhibition on cytochrome P450 (CYP) 3A4, 2C9, 2C19, 1A2 and 2D6 enzymes from bactosomes source using fluorogenic substrates. Compound (compound of Formula (I) or Comparator Compound) was dissolved in methanol at 1.65 mM. Daughter solutions were prepared in methanol at 660, 264, 106, 42, 17, 6.8, 2.7, 1.1 and 0.43 μM. NADPH cofactor was prepared with Glucose-6-phosphate (7.8 mg), Glucose-6-phosphate dehydrogenase (6 units), NADP (1.7 mg) per 1 mL in NaHCO3 2%. Substrate preparation was as follows: • 7-Methoxy-4-triFluoromethyl Coumarin-3-Acetic acid ethyl ester (FCA): 12.5 mM in acetonitrile • EthoxyResorufin (ER): 0.05 mM in acetonitrile • 4-MethylaminoMethyl-7-Methoxy Coumarin (MMC): 2.5 mM in methanol • 3-Butyryl-7Methoxy Coumarin (BMC): 2.5 mM in DMSO • 7-BenzyloxyQuinoline (7BQ): 2.5 mM in acetonitrile • DiEthoxyFluorescein (DEF): 0.1 mM in acetonitrile Bactosomes (Cypex source) at the concentration of 10 mg of protein per ml were diluted in phosphate buffer 50 mM pH7.4: • 0.33 ml of bactosomes CYP2C9 with 23.8 ml of buffer and 0.11 ml of FCA • 0.33 ml of bactosomes CYP1A2 with 23.6 ml of buffer and 0.275 ml of ER • 0.33 ml of bactosomes CYP2D6 with 23.8 ml of buffer and 0.11 ml of MMC • 0.33 ml of bactosomes CYP2C19 with 23.8 ml of buffer and 0.11 ml of BMC • 0.33 ml of bactosomes CYP3[…] with 23.6 ml of buffer and 0.275 ml of 7BQ • 0.33 ml of bactosomes CYP3[…] with 23.6 ml of buffer and 0.275 ml of DEF Pre-Incubation consisted in mixing 5 μl of compound solution with 220 μl diluted bactosomes and warming it at 37° C. for 10 min. Incubation was started with the addition of 25 μl of NADPH. Then fluorescence of substrate metabolite was read in a SAFIRE instrument (from Tecan) for 5 min: • FCA (2C9): Excitation at 410 nm and Emission at 510 nm • ER (1A2): Excitation at 530 nm and Emission at 590 nm • MMC (2D6): Excitation at 410 nm and Emission at 485 nm • BMC (2C19): Excitation at 410 nm and Emission at 465 nm • 7BQ (3A4H): Excitation at 410 nm and Emission at 530 nm • DEF (3A4L): Excitation at 485 nm and Emission at 530 nm Plotting of inhibition of substrate production against compound concentration allowed the determination of IC50 values.

Setting [5] is: substrate 7BQ, read-out: IC50 CYP3A4 (7BQ).
[6] abbreviates: substrate DEF, read-out: IC50 CYP3A4 (DEF).

Where two headings read alike, the source gives them in different places.

T5 sequence (P08684 whole entry): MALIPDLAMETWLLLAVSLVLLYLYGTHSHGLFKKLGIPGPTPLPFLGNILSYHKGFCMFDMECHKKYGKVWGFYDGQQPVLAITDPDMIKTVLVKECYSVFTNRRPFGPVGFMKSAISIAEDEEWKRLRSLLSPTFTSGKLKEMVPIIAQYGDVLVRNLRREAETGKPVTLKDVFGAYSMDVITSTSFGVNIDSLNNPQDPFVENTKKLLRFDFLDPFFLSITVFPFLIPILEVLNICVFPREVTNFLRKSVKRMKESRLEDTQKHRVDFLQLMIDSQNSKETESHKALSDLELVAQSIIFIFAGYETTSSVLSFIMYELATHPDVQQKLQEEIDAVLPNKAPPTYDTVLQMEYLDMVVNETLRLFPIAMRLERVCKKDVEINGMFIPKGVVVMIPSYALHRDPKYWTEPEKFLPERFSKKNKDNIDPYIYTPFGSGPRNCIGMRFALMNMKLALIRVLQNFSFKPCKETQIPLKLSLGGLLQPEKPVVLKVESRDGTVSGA
T1 sequence (P11712 whole entry): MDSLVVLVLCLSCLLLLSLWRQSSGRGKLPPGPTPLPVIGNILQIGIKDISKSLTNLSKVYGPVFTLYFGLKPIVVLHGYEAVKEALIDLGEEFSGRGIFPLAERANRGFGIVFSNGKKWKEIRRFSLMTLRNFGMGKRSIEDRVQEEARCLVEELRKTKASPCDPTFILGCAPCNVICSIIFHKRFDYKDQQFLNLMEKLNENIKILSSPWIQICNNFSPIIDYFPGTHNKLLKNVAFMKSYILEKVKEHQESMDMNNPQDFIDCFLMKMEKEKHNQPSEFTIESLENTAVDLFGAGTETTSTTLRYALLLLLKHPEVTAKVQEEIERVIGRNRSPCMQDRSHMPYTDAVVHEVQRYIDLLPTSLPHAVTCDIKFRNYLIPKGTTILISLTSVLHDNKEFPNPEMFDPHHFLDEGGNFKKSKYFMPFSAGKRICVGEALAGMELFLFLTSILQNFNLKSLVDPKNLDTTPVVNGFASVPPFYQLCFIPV
T3 sequence (P10635 whole entry): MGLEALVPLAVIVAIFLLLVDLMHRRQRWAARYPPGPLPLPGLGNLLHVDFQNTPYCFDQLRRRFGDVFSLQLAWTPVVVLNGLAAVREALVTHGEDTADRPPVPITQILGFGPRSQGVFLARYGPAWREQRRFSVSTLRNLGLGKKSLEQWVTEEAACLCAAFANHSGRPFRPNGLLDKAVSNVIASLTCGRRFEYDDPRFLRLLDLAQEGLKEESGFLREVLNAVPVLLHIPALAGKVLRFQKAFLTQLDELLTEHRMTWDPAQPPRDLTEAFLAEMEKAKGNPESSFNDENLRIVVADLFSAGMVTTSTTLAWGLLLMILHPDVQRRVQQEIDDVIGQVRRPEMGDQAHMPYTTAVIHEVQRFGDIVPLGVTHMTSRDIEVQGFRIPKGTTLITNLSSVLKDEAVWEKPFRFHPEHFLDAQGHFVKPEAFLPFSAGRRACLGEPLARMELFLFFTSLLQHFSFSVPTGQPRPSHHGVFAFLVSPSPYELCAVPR
T2 sequence (P33261 whole entry): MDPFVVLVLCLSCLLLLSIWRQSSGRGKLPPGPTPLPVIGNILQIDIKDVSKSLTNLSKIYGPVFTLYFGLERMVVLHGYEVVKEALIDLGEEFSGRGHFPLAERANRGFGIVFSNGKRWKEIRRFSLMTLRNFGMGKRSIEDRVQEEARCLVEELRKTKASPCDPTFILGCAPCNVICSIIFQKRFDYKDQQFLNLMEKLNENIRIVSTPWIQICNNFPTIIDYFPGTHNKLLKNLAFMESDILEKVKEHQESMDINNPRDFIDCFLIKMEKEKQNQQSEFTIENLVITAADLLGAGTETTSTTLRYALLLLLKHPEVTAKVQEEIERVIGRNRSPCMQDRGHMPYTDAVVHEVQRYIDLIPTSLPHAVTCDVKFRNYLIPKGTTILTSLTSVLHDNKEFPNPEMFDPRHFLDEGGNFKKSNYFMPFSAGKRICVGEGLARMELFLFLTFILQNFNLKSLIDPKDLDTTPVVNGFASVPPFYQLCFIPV

On to `O=C(OCOC(=O)[C@H]1CCCN1C(=O)CCCCC(=O)N1CCC[C@@H]1C(=O)OCOC(=O)OC1CCOCC1)OC1CCOCC1` [Compound of Formula (I), (2R,2′R)-Bis(((((tetrahydro-2H-pyran-4-yl)oxy)carbonyl)oxy)methyl) 1,1′-adipoylbis(pyrrolidine-2-carboxylate)], for which the IC50 at CYP2C9, at CYP2C19, on CYP2D6, on CYP1A2, at CYP3A4 (setting [5]) and on CYP3A4 (setting [6]) was more than 33 µM in each case. For the same molecule, the “Rate of hydrolysis in human intestinal microsomes” value in series [1] is given as “low rate of hydrolysis”. Further, in series [2], the “Compound hydrolysed after 24 h” value is “Less than 20%”. Further, the “Solubility in biologically relevant media” value in series [3] (biologically relevant media) is given as “highly soluble”. Moreover, the solubility at 4 h in series [3] (FaSSIF (Simulated Fasted State Intestinal Fluid pH 6.5)) was 4400 µg/mL; in [3] (FeSSIF (Simulated Fed State Intestinal Fluid pH 6.5)), 5000 µg/mL; in series [3] (SGF (Simulated Gastric Fluid pH 1.6)) it was 5200 µg/mL; in series [3] (water (purified water), Water), 5500 µg/mL. In [4], the “Rate of hydrolysis to CPHPC in human liver microsomes” value was “high rate of hydrolysis”.

On to `O=C(OCOC(=O)[C@H]1CCCN1C(=O)CCCCC(=O)N1CCC[C@@H]1C(=O)O)OC1CCOCC1` [mono-ester derivative, (R)-1-(6-oxo-6-((R)-2-((((((tetrahydro-2H-pyran-4-yl)oxy)carbonyl)oxy)methoxy)carbonyl)pyrrolidin-1-yl)hexanoyl)pyrrolidine-2-carboxylic acid], for which the IC50 at CYP2C9, at CYP2C19, at CYP2D6, at CYP1A2, on CYP3A4 (setting [5]) and on CYP3A4 (setting [6]) was more than 33 µM throughout.

The record behind these values is patent US9737505B2, “Prodrug of 1,1′-(1,6-dioxo-1,6-hexanediyl)bis-D-proline” (GlaxoSmithKline Intellectual Property Development Limited, priority 2014, dated 2017).
